Assay results reported in ChEMBL document CHEMBL1165922, “Vitamin D receptor agonist/histone deacetylase inhibitor molecular hybrids” (Bioorg Med Chem, 2010).
The source made the active and inactive calls. No cut-off for these calls is given here.

Experiments:
[1] = system: Mus musculus; experiment: Toxicity in FVB mouse assessed as calcium level in blood at 12 pmol/day administered via osmotic pump for 6 to 7 days measured on day 3 by microchemistry (RVb = 2.24 mmol/L); type: organism-based; settings: in vivo, other
[2] = system: Mus musculus; experiment: Toxicity in FVB mouse assessed as calcium level in blood at 24 pmol/day administered via osmotic pump for 6 to 7 days measured on day 3 by microchemistry (RVb = 2.24 mmol/L); type: organism-based; settings: in vivo, other
[3] = system: Mus musculus; experiment: Toxicity in FVB mouse assessed as calcium level in blood at 48 pmol/day administered via osmotic pump for 6 to 7 days measured on day 3 by microchemistry (RVb = 2.24 mmol/L); type: organism-based; settings: in vivo, other
[4] = system: Mus musculus; experiment: Toxicity in FVB mouse assessed as calcium level in blood at 12 pmol/day administered via osmotic pump for 6 to 7 days measured on day 6 by microchemistry (RVb = 2 mmol/L); type: organism-based; settings: in vivo, other
[5] = system: Mus musculus; experiment: Toxicity in FVB mouse assessed as calcium level in blood at 24 pmol/day administered via osmotic pump for 6 to 7 days measured on day 6 by microchemistry (RVb = 2 mmol/L); type: organism-based; settings: in vivo, other
[6] = system: Mus musculus; experiment: Toxicity in FVB mouse assessed as calcium level in blood at 48 pmol/day administered via osmotic pump for 6 to 7 days measured on day 6 by microchemistry (RVb = 2 mmol/L); type: organism-based; settings: in vivo, other
[7] = system: Mus musculus; experiment: Toxicity in FVB mouse assessed as calcium level in blood at 12 pmol/day administered via osmotic pump for 6 to 7 days measured on day 4 by microchemistry (RVb = 2.11 mmol/L); type: organism-based; settings: in vivo, other
[8] = system: Mus musculus; experiment: Toxicity in FVB mouse assessed as calcium level in blood at 24 pmol/day administered via osmotic pump for 6 to 7 days measured on day 4 by microchemistry (RVb = 2.11 mmol/L); type: organism-based; settings: in vivo, other
[9] = system: Mus musculus; experiment: Toxicity in FVB mouse assessed as calcium level in blood at 12 pmol/day administered via osmotic pump for 6 to 7 days measured on day 7 by microchemistry (RVb = […] mmol/L); type: organism-based; settings: in vivo, other
[10] = system: Mus musculus; experiment: Toxicity in FVB mouse assessed as calcium level in blood at 24 pmol/day administered via osmotic pump for 6 to 7 days measured on day 7 by microchemistry (RVb = […] mmol/L); type: organism-based; settings: in vivo, other
[11] = target: Histone deacetylase 3 (Homo sapiens, UniProt O15379); experiment: Inhibition of HDAC3 after 10 mins by fluorometric assay
[12] = target: T1, Protein deacetylase HDAC6 (Homo sapiens, UniProt Q9UBN7); experiment: Inhibition of HDAC6 after 10 mins by fluorometric assay
T1 sequence (Q9UBN7 whole entry): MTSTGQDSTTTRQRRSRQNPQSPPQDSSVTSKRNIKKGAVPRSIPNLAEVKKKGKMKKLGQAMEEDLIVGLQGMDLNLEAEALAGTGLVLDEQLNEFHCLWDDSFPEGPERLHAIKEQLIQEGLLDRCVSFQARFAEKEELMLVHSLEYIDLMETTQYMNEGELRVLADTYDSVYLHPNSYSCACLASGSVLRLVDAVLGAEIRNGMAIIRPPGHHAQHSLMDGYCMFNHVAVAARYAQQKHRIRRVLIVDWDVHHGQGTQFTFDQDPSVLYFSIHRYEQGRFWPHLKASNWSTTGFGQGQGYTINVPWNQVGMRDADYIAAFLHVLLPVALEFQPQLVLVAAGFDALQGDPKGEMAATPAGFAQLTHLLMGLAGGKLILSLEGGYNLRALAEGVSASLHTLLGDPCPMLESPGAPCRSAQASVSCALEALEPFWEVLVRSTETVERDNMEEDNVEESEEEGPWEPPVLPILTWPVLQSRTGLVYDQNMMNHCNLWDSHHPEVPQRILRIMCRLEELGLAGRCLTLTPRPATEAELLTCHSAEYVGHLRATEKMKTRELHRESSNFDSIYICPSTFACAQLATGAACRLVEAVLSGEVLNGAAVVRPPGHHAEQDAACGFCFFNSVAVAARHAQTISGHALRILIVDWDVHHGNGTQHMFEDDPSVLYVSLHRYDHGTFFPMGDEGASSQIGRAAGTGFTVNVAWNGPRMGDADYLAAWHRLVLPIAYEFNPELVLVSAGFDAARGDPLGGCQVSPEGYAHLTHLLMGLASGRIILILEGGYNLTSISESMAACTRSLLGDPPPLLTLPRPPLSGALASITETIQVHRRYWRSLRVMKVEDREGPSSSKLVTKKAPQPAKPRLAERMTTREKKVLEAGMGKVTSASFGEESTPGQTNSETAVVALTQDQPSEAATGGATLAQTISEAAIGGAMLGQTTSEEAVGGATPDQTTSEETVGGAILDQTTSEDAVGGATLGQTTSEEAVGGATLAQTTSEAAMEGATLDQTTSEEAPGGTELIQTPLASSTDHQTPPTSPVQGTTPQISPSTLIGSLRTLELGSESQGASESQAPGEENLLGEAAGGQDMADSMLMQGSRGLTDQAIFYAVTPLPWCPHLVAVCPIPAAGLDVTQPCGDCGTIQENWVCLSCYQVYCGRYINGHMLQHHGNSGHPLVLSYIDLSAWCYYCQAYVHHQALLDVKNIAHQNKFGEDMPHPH

[13] = target: T2, Vitamin D3 receptor (Homo sapiens, UniProt P11473)
T2 sequence (P11473 whole entry): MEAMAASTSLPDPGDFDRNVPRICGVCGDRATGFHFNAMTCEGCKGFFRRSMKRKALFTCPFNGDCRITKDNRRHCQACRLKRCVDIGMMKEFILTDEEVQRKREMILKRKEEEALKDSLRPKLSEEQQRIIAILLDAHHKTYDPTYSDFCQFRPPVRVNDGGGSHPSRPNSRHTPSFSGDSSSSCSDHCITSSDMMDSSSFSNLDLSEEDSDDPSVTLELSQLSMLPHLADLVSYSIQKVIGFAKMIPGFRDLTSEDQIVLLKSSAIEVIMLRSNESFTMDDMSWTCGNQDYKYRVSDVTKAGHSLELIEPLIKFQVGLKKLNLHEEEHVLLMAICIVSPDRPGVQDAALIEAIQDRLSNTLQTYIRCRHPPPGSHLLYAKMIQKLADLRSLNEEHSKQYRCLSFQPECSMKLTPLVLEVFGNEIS
Description: Binding affinity to VDR ligand binding domain by fluorescence polarization competition assay

[14] = target: Histone deacetylase 2 (Homo sapiens, UniProt Q92769); experiment: Inhibition of HDAC2 after 10 mins by fluorometric assay
[15] = system: Mus musculus; experiment: Toxicity in FVB mouse assessed as calcium level in blood at 240 pmol/day administered via osmotic pump for 6 to 7 days measured on day 3 by microchemistry (RVb = 2.24 mmol/L); type: organism-based; settings: in vivo, other
[16] = system: Mus musculus; experiment: Toxicity in FVB mouse assessed as calcium level in blood at 1200 pmol/day administered via osmotic pump for 6 to 7 days measured on day 3 by microchemistry (RVb = 2.24 mmol/L); type: organism-based; settings: in vivo, other
[17] = system: Mus musculus; experiment: Toxicity in FVB mouse assessed as calcium level in blood at 240 pmol/day administered via osmotic pump for 6 to 7 days measured on day 6 by microchemistry (RVb = 2 mmol/L); type: organism-based; settings: in vivo, other
[18] = system: Mus musculus; experiment: Toxicity in FVB mouse assessed as calcium level in blood at 1200 pmol/day administered via osmotic pump for 6 to 7 days measured on day 6 by microchemistry (RVb = 2 mmol/L); type: organism-based; settings: in vivo, other
[19] = system: AT84; experiment: Antiproliferative activity against mouse AT84 cells at 100 to 500 nM after 48 hrs by EdU incorporation assay; type: functional, cell-based
[20] = system: Mus musculus; experiment: Toxicity in FVB mouse assessed as calcium level in blood at 240 pmol/day administered via osmotic pump for 6 to 7 days measured on day 4 by microchemistry (RVb = 2.11 mmol/L); type: organism-based; settings: in vivo, other
[21] = system: Mus musculus; experiment: Toxicity in FVB mouse assessed as calcium level in blood at 1200 pmol/day administered via osmotic pump for 6 to 7 days measured on day 4 by microchemistry (RVb = 2.11 mmol/L); type: organism-based; settings: in vivo, other
[22] = system: Mus musculus; experiment: Toxicity in FVB mouse assessed as calcium level in blood at 240 pmol/day administered via osmotic pump for 6 to 7 days measured on day 7 by microchemistry (RVb = […] mmol/L); type: organism-based; settings: in vivo, other
[23] = system: Mus musculus; experiment: Toxicity in FVB mouse assessed as calcium level in blood at 1200 pmol/day administered via osmotic pump for 6 to 7 days measured on day 7 by microchemistry (RVb = […] mmol/L); type: organism-based; settings: in vivo, other

Sequence of Histone deacetylase 3 (O15379 whole entry): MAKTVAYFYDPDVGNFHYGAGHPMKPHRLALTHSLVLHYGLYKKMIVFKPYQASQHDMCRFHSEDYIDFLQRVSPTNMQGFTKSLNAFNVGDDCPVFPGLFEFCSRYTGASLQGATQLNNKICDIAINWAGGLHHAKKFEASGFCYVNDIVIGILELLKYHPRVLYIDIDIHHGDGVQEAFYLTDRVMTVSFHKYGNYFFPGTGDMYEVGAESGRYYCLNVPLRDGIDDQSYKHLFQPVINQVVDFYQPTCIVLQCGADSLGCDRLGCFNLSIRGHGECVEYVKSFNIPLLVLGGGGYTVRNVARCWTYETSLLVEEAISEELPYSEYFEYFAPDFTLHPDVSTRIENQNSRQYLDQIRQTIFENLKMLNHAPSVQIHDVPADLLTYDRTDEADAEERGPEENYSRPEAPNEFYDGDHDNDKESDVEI
Sequence of Histone deacetylase 2 (Q92769 whole entry): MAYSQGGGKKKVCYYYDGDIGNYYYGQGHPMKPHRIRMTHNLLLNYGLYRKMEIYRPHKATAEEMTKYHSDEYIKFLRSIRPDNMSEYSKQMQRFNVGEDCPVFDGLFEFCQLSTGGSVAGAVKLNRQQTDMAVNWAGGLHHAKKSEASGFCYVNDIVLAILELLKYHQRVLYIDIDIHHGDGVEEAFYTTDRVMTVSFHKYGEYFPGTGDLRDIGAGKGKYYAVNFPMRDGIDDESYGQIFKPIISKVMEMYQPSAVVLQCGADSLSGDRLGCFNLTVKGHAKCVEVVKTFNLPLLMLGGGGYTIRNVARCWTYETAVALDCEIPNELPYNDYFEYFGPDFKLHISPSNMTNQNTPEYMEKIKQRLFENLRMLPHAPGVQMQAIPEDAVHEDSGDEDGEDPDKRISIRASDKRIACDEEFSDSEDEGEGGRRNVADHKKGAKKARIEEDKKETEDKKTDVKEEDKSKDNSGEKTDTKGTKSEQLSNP

| SMILES | IC50 [11] | IC50 [12] | IC50 [13] | Activity [20] | Activity [21] | Activity [22] | Activity [23] | other results |
| --- | --- | --- | --- | --- | --- | --- | --- | --- |
| C=C1/C(=C\C=C2/CCC[C@]3(C)[C@@H]([C@H](C)CCCC(C)(C)O)CC[C@@H]23)C[C@@H](O)C[C@@H]1O [CALCITRIOL] |  |  |  |  |  |  |  | Activity [1]: 2.05 mmol/L; Activity [2]: 3.15 mmol/L; Activity [3]: 3.07 mmol/L; Activity [4]: 2.03 mmol/L; Activity [5]: 4.43 mmol/L; Activity [6]: Toxic; Activity [7]: 2.59 mmol/L; Activity [8]: 2.97 mmol/L; Activity [9]: 2.62 mmol/L; Activity [10]: 3.21 mmol/L |
| C[C@H](CCCCNS(N)(=O)=O)[C@H]1CC[C@H]2/C(=C/C=C3C[C@@H](O)C[C@H](O)C3)CCC[C@]12C | 470 µM | 50.4 µM | 280 nM |  |  |  |  |  |
| CC(/C=C/C(=O)NO)=C\[C@@H](C)[C@H]1CC[C@H]2/C(=C/C=C3\C[C@@H](O)C[C@@H](O)C3)CCC[C@]12C [TRICIFEROL] | 13.3 µM | 0.58 µM | 87 nM |  |  |  |  | IC50 [14]: 10.4 µM; Activity [15]: 2.11 mmol/L; Activity [16]: 1.92 mmol/L; Activity [17]: 2.03 mmol/L; Activity [18]: 2.08 mmol/L |
| C[C@H](CCCCNC(=O)CS)[C@H]1CC[C@H]2/C(=C/C=C3C[C@@H](O)C[C@H](O)C3)CCC[C@]12C | 32.3 µM | 1.75 µM | 36 nM | 2.03 mmol/L | 2 mmol/L | 2.02 mmol/L | 2.04 mmol/L | IC50 [14]: 96.3 µM; Activity [19]: Active |
| CCCCS(=O)(=O)NCCCC[C@@H](C)[C@H]1CC[C@H]2/C(=C/C=C3C[C@@H](O)C[C@H](O)C3)CCC[C@]12C | 725 µM | 101 µM | 29 nM | 1.99 mmol/L | 2.12 mmol/L | 2.05 mmol/L | 1.99 mmol/L |  |
| C[C@H](CCCCNS(=O)(=O)c1ccccc1)[C@H]1CC[C@H]2/C(=C/C=C3C[C@@H](O)C[C@H](O)C3)CCC[C@]12C | 508 µM | 293 µM | 15 nM | 2.05 mmol/L | 2.03 mmol/L | 1.95 mmol/L | 2.07 mmol/L |  |
| C[C@H](CCCCCNS(N)(=O)=O)[C@H]1CC[C@H]2/C(=C/C=C3C[C@@H](O)C[C@H](O)C3)CCC[C@]12C | 605 µM | 31.6 µM | 196 nM |  |  |  |  |  |
